# Measurements reported in patent publication US20030113810A1, “Novel assay” (priority 2000, published 2003).
# Like-named read-outs stand apart in the source and are kept apart here.
# Key:
# rGPR41 [1] = molecular target: T1, rGPR41 (Rattus norvegicus, UniProt B2GV46); assay: Yeast reporter gene induction, MMY11 cells with p426GPD-rGPR41 and pRS314-Gpa1/Gαo, CPRG substrate; format: cell-based; details: MMY11, Gpa1/Gαo transplant; FIG. 6
# T1 sequence (B2GV46 1-319): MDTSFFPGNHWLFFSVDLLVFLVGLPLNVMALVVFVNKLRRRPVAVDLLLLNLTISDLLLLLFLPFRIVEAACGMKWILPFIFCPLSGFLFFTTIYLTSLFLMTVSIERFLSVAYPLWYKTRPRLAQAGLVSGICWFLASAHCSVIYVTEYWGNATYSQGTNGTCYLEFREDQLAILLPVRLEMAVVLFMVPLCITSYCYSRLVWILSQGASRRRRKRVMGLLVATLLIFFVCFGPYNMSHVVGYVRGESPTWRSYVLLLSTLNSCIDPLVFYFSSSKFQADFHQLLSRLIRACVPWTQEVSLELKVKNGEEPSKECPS
# From the text: Significant absorbance at 570 nm, corresponding to induction of FUS1-lacZ and FUS1-HIS3 reporter genes, was detected for MMY11 cells containing p426GPD-rGPR41 in combination with pRS314-Gpa1/Gαo. These cells express rGPR41 in combination with a Gα subunit identical to Gpa1 but in which the 5 C-terminal amino acids are replaced with the 5 C-terminal amino acids of the mammalian Gα subunit, Gαo. This response is dependant on the presence of the agonist ligand propionate since no induction is detected in the absence of propionate (FIG. 6). […] Of the other Gα subunits tested, the pRS314-Gpa1/Gα12 and pRS314-Gpa1/Gα13 transplants supported weak rGPR41 coupling detectable after 48 hrs incubation (data not shown), and with no other Gα subunit could ligand responses of rGPR41 be detected.
# The yeast strain MMY11 has been described previously (Olesnicky et al, 1999). […]
# In vivo assays of reporter gene induction were carried out by suspending MMY11 cells transformed as described above to a density of 0.02 OD600/ml in 200 μl SC-glucose (2%) medium lacking tryptophan, uracil and histidine. […] Plates were incubated for 24 hours at 30° C. without agitation, and absorbance at 570 nm was determined using a Spectrofluor microtitre plate reader (Tecan).
# rGPR41 [2] = molecular target: T1, rGPR41; assay: Yeast FUS1-lacZ/FUS1-HIS3 reporter assay, rGPR41 in S. cerevisiae MMY22 (Gpa1/Gαo), FDG substrate; format: cell-based; design: expressed in transfected cells; host or cells: S. cerevisiae MMY22 (A1, A5; Gpa1/Gαo integrated) or MMY11 + pRS314-Gpa1/Gαo (A4), transformed with p426GPD-rGPR41
# Protocol: A study was carried out of the function of rGPR41 following expression in S. cerevisiae MMY22, which is a derivative of S. cerevisiae MMY11 containing a copy of the gene encoding the Gpa1/Gαo transplant chimera described above (in which the 5 C-terminal amino acids of Gpa1 are replaced with the 5 C-terminal amino acids of Gαo) integrated into the genome. To do this, a cassette comprising the GPA1 promoter, nucleotide sequence encoding Gpa1/Gαo, and the terminator was sub-cloned from pRS314-Gpa1/Gαo into the yeast integrating plasmid pRS304 (Sikorski and Hieter, 1989). The resulting plasmid pRS304-Gpa1/Gαo was transformed into MMY11 and integrated into the trp1 locus creating MMY22.
# The rGPR41 expression construct described above, p462GPD-rGPR41 was introduced into MMY22 by transformation as described above. Four separate transformants were tested for reporter gene activation in response to propionate. Assays for FUS1-lacZ and FUS1-HIS3 induction were performed as described, except the β-galactosidase (lacZ) substrate fluorescein di-β-D-galactopyranoside (FDG) was used in place of CPRG, and 3-aminotriazole concentration was 5 mM. Also, black-walled 96-well microtitre plates were used, and fluorescence resulting from degradation of FDG to fluorescein due to β-galactosidase was determined using a Spectrofluor microtitre plate reader (Tecan)(excitation wavelength: 485 nm; emmision wavelength: 535 nm).
# A series of carboxylic acids and other compounds related to propionate were tested for the ability to activate rGPR41. Experiments were performed as described above, using yeast cells of strain MMY22 transformed with rGPR41 expression plasmid p462GPD-rGPR41, except that the agonist propionate was replaced with one of a series of other compounds, which are listed in table 2 below.
# In vivo assays of reporter gene induction were carried out by suspending MMY11 cells transformed as described above to a density of 0.02 OD600/ml in 200 μl SC-glucose (2%) medium lacking tryptophan, uracil and histidine. This medium was supplemented with 10 mM 3-aminotriazole and the β-galactosidase (lacZ) substrate chlorophenolred-β-D-galactopyranoside (CPRG; Boehringer Mannheim) to a concentration of 0.1 mg/ml. Additionally the medium was supplemented with various concentrations of the agonist ligand, propionate (sodium propionate, pH 7.0). To visualise the yellow to red colour change reaction occurring on degradation of CPRG due to β-galactosidase, the medium was buffered to pH 7 with 0.1 M sodium phosphate. The assay was conducted in flat-bottomed sterile 96-well microtitre plates. Plates were incubated for 24 hours at 30° C. without agitation, and absorbance at 570 nm was determined using a Spectrofluor microtitre plate reader (Tecan).
# human GPR41 = molecular target: T2, human GPR41 (Homo sapiens, UniProt O14843)
# T2 sequence (O14843 1-346): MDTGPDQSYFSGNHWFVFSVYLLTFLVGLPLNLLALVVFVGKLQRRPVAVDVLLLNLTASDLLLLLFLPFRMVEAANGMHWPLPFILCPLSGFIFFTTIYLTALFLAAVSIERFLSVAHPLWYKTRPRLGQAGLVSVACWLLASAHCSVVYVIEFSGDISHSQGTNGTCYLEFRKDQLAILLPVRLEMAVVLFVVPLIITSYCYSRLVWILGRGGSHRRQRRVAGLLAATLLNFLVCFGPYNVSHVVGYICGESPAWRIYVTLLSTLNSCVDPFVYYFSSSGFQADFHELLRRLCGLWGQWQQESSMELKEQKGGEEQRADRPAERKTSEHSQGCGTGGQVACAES
# Protocol: HEK293T cells (HEK293 cells stably expressing the SV40 large T-antigen) were maintained in DMEM containing 10% (v/v) foetal calf serum and 2 mM glutamine. Cells were seeded in 60 mm culture dishes and grown to 60-80% confluency (18-24 h) prior to transfection with pCDNA3 containing the relevant DNA species using Lipofectamine reagent. For transfection, 3 μg of DNA was mixed with 10 μl of Lipofectamine in 0.2 ml of Opti-MEM (Life Technologies Inc.) and was incubated at room temperature for 30 min prior to the addition of 1.6 ml of Opti-MEM. Cells were exposed to the Lipofectamine/DNA mixture for 5 h and 2 ml of 20% (v/v) newborn calf serum in DMEM was then added. Cells were harvested 48-72 h after transfection.
# Plasma membrane-containing P2 particulate fractions were prepared from cell pastes frozen at −80° C. after harvest. All procedures were carried out at 4° C. Cell pellets were resuspended in 1 ml of 10 mM Tris-HCl and 0.1 mM EDTA, pH 7.5 (buffer A) and by homogenisation for 20 s with a polytron homogeniser followed by passage (5 times) through a 25-guage needle. Cell lysates were centrifuged at 1,000 g for 10 min in a microcentrifuge to pellet the nuclei and unbroken cells and P2 particulate fractions were recovered by microcentrifugation at 16,000 g for 30 min. P2 particulate fractions were resuspended in buffer A and stored at −80° C. until required. Protein concentrations were determined using the bicinchoninic acid (BCA) procedure (4) using BSA as a standard.
# Assays were performed in 96-well format using a method modified from Wieland and Jakobs, 1994. Membranes (10 μg per point) were diluted to 0.083 mg/ml in assay buffer (20 mM HEPES, 100 mM NaCl, 10 mM MgCl2, pH7.4) supplemented with saponin (10 mg/l) and pre-incubated with 40 μM GDP. […] Non-specific binding was determined by the inclusion of 0.6 mM GTP. […] Plates were centrifuged at 1500 g for 5 min and bound [^35S]GTPγS was determined by scintillation counting on a Wallac 1450 microbeta Trilux scintillation counter.
# [3] = tested on: isoprenaline-stimulated adenylate cyclase activity in rat primary adipocytes; details: 10 minutes at 37° C., FIG. 11
# Protocol: Isoprenaline stimulates adenylate cyclase activity and subsequently the process of lipolysis following activation of β-adrenoceptors and G,a in adipocytes.
# A reaction mixture of 500 μl was used in a 1.5 ml eppendorf tube. The reaction was started by the addition of 100 μl of adipocytes to a 400 μl volume of Krebs buffer containing isoprenaline and test compound. Following the addition of the adipocytes the reaction tube was incubated at 37° C. for 10 minutes. The reaction was stopped with the addition of 500 μl of a stop mixture containing methanol (1 part), chloroform (2 parts) and 0.1N HCl (0.1 part). Following the addition of the stop mixture each tube was vortexed and then centifuged at 5000 rpm for 5 minutes. 300 μl of the supernatent was removed and stored at −20° C. The levels of cAMP in each samples were determined using an ELISA kit from R&D systems (DE0355).
# [4] = yeast MMY22 with p462GPD-rGPR41, FDG fluorescence, compounds as salt solutions buffered to pH 7.0, read-out: Agonism @ rGPR41 Approx. EC50
Structure (SMILES),induction of FUS1-lacZ and FUS1-HIS3 reporter genes (absorbance at 570 nm) (rGPR41 [1]),"fluorescence, activation of the pheromone response pathway by rGPR41 (rGPR41 [2]; MMY22, four transformants, FIG. 7)","EC50 (rGPR41 [2]; yeast MMY22, text of Example 8, read-out: EC50 value at rGPR41)",EC50 (rGPR41 [2]; [4]),"stimulation of [35S]GTPγS binding (human GPR41; membranes of HEK293T cells, human GPR41 + Go1α, FIG. 2-4)",isoprenaline-amplified cAMP levels [3],stimulation of [35S]GTPγS binding (human GPR41)
CCC(=O)O [Propionate],can be activated by propionate,dependent on the concentration of propionate,5 µM,~5 µM,most potent and efficacious,,
CC(=O)O [Acetate],,,,~1000 µM,,reduction of isoprenaline-amplified cAMP levels,stimulation of [^35S]GTPγS binding
